Results reported in PMC7059199, “Identification and structural insight of an effective PPARγ modulator with improved therapeutic index for anti-diabetic drug discovery” (Chemical Science, 2020).

Assays:
[1] = Pharmacokinetic profile in mice; assay type: in vivo
Procedure: VSP-77 was further evaluated for its preliminary pharmacokinetic profile in mice following oral (10 mg kg^–1) and intravenous (5 mg kg^–1) administration (Table S2 ^†).

HFD mice = assay: Anti-diabetic activity in high-fat diet (HFD) mice, 10 days; assay type: in vivo, C57BL/6J mice
3T3-L1 cells [2] = assay: 3T3-L1 adipocyte differentiation assay (Oil Red O staining); assay type: cell-based, mouse
Procedure: One of the best documented side-effects of the PPARγ agonist drugs is weight gain as PPARγ is the key activator of adipogenesis. To determine whether VSP-77 promotes adipogenesis, we treated mouse fibroblast 3T3-L1 cells with 100 μM of VSP-77. […] Cells were incubated with Oil Red O, which stains adipocytes red.
Fig. 6 3T3-L1 adipocyte differentiation assay. Oil Red O staining of 3T3-L1 fibroblast cells after differentiating with different ligands for 2 days. […]
Adipocyte differentiation assay
The adipocyte differentiation assay was performed with NIH 3T3-L1 preadipocytes obtained from ATCC. The 3T3-L1 preadipocytes were maintained in DMEM containing 10% FBS and antibiotics. For differentiation DMI (Dexamethazone 1 μM, 3-isobutyl-1-methyxanthine (IBMX) 0.5 mM and Insulin167 nM) and 10 μM of rosiglitazone were used as positive controls for the assay. VSP-77 was used at a 100 μM concentration. All the treatments have insulin at 167 nM concentration. Media with DMSO was used as a negative control. Differentiation was induced by treating post-confluent cultures with media containing the respective ligands for two days.
Cells were stained with Oil Red O to estimate the lipid accumulation. The images were analyzed using ImageJ (National Institutes of Health). […]

3T3-L1 cells [3] = assay: qPCR of adipogenic genes in 3T3-L1 cells; assay type: cell-based, mouse; details: 7 days after treatment
Procedure: Encouraged by the above results and to further determine whether VSP-77 activates PPARγ in 3T3-L1 cells, we evaluated the ability of VSP-77 to stimulate PPARγ activity by measuring the mRNA levels of endogenous PPARγ-regulated downstream genes linked to adipogenesis (primers are listed in Table S1 ^†).
Fig. 7 Expression of adipogenic genes in 3T3-L1 cells was analyzed by quantitative PCR (qPCR). Relative mRNA levels of the adipocyte differentiation genes PPARγ, aP2, CD36, LPL, C/EBPα and Fasn. mRNA was extracted from differentiating cells 7 days after treatment (n = 3, error bars = SEM). […]
(average±standard deviation calculated from three separate experiments). […]
Cells were stained with Oil Red O to estimate the lipid accumulation. The images were analyzed using ImageJ (National Institutes of Health).
For real-time PCR analysis, 1-2 μg total RNA was reverse-transcribed using the SuperScript cDNA Reverse Transcription Kit (Invitrogen) with SYBR Green PCR Master Mix (Invitrogen) and gene specific primers (Table S1) using a Roche Light Cycler 480 machine. The relative expression of mRNA was determined after normalization to β-actin level using the ΔΔ-Ct method. […]

[4] = mouse, in vivo, intravenous 5 mg/kg
[5] = mouse, in vivo, oral (ig) 10 mg/kg
[6] = oral 10 mg/kg, unit as printed in main text

- AUC(0-inf) [1, 4]: 5030 ng·h/mL
- AUC(0-t) [1, 4]: 5000 ng·h/mL
- MRT [1, 4]: 1.11 h
- half-life [1, 4]: 1.07 h
- AUC(0-inf) [1, 5]: 5880 ng·h/mL
- AUC(0-t) [1, 5]: 5770 ng·h/mL
- Cmax [1, 5]: 2920 ng/mL
- MRT [1, 5]: 1.94 h
- Tmax [1, 5]: 0.5 h
- half-life [1, 5]: 1.25 h
- bioavailability ([1]; mouse, in vivo, oral (ig) 10 mg/kg vs iv 5 mg/kg, read-out: F (oral bioavailability)): 57.7%
- AUC0–t [1, 6]: 5772 ng mL^–1 h^–1
- AUC0–∞ [1, 6]: 5877 ng mL^–1 h^–1
SMILES: CCCCCCCC(OCC(=O)O)c1ccc(Cl)cc1 (stereo not shown) [VSP-77]
- expression of key adipogenesis-related genes in adipose tissue (HFD mice): does not induce
- Cdk5-mediated phosphorylation of PPARγ at Ser-273 in adipose tissue (HFD mice; 5 mg/kg i.p.): decrease
- body weight and food intake compared to vehicle-treated mice (HFD mice; 5 mg/kg i.p.): without significant differences
- expression of glut4 and adiponectin in adipose tissue (HFD mice; 5 mg/kg i.p.): selectively induced
- fasting insulin levels (HFD mice; 5 mg/kg i.p.): significant reduction
- glucose levels (HFD mice; 5 mg/kg i.p.): lowered
- insulin resistance (HOMA-IR) (HFD mice; 5 mg/kg i.p.): clear and dose-dependent improvement
- organ / fat weight (HFD mice; 5 mg/kg i.p.): selectively decreased subcutaneous and perirenal fats
- adipogenesis (in words) (3T3-L1 cells [2]; 100 μM): does not activate adipogenesis
- total number of adipocytes when added to DMI- or Rosi-treated cells (3T3-L1 cells [2]; VSP-77 100 μM): clear decrease
- % Area stained by Oil Red O (3T3-L1 cells [2]; VSP-77 100 μM, 2 days): 0%
- expression of adipogenic genes PPARγ, aP2, CD36, LPL, C/EBPα and Fasn (mRNA) (3T3-L1 cells [3]): only weakly stimulated
